# According to patent US9199949B2, “Selective glycosidase inhibitors and uses thereof” (Alectos Therapeutics Inc., priority 2011, dated 2015):
# Legend:
# human O-GlcNAcase = human O-GlcNAcase (Homo sapiens (Human), UniProt O60502); assay: Assay for determination of KI values for inhibition of O-GlcNAcase activity (fluorescence-based hOGA); type: biochemical; details: purified human O-GlcNAcase, 4-Methylumbelliferyl N-acetyl-β-D-glucosaminide substrate, pH 7.0, Cheng-Prusoff
# Description: Experimental Procedure for Kinetic Analyses: Enzymatic reactions were carried out in a reaction containing 50 mM NaH2PO4, 100 mM NaCl and 0.1% BSA (pH 7.0) using 2 mM 4-Methylumbelliferyl N-acetyl-β-D-glucosaminide dihydrate (Sigma M2133) dissolved in ddH2O, as a substrate. The amount of purified human O-GlcNAcase enzyme used in the reaction was 0.7 nM. Test compound of varying concentrations was added to the enzyme prior to initiation of the reaction. The reaction was performed at room temperature in a 96-well plate and was initiated with the addition of substrate. […] The slope of product production was determined for each concentration of compound tested and plotted, using standard curve fitting algorithms for sigmoidal dose response curves. The values for a four parameter logistic curve fit of the data were determined.
# [1] = Assay for determination of apparent permeability (Papp) in LLC-PK1 cells; type: in vitro ADME; details: pig, t=3 h, average of A to B and B to A
# Description: Bi-directional transport was evaluated in LLC-PK1 cells in order to determine apparent permeability (Papp). LLC-PK1 cells can form a tight monolayer and therefore can be used to assess vectorial transport of compounds from basolateral to apical (B→A) and from apical to basolateral (A→B).
# To determine Papp, LLC-PK1 cells were cultured in 96-well transwell culture plates (Millipore). Solutions containing the test compounds (1 μM) were prepared in Hank's Balanced Salt Solution with 10 mM HEPES. Substrate solution (150 μL) was added to either the apical (A) or the basolateral (B) compartment of the culture plate, and buffer (150 μL) was added to the compartment opposite to that containing the compound. At t=3 h, 50 μL samples were removed from both sides of monolayers dosed with test compound and placed in 96 well plates, scintillant (200 μL) or internal standard (100 μL labetolol 1 μM) was added to the samples and concentration was determined by liquid scintillation counting in a MicroBeta Wallac Trilux scintillation counter (Perkin Elmer Life Sciences, Boston, Mass.) or by LCMS/MS (Applied Biosystems SCIEX API 5000 triple quadruple mass spectrometer). [^3H]Verapamil (1 μM) was used as the positive control. The experiment was performed in triplicate.
# [formula] Where: Volume of Receptor Chamber was 0.15 mL; Area of membrane was 0.11 cm^2; the Initial Concentration is the sum of the concentration measured in the donor plus concentration measured in receiver compartments at t=3 h; Δ in Concentration is concentration in the receiver compartment at 3 h; and Δ in Time is the incubation time (3×60×60=10800 s). Papp was expressed as 10^−6 cm/s.
# O-GlcNAcase = O-GlcNAcase (Rattus norvegicus (Rat), UniProt Q8VIJ5); assay: Cell-based ELISA for cellular activity of O-GlcNAcase inhibitors (O-GlcNAcylated protein, RL-2 antibody); details: rat PC-12 cells, 24 h treatment, O-GlcNAcylated protein by RL-2 ELISA
# Description: Inhibition of O-GlcNAcase, which removes O-GlcNAc from cellular proteins, results in an increase in the level of O-GlcNAcylated protein in cells. An increase in O-GlcNAcylated protein can be measured by an antibody, such as RL-2, that binds to O-GlcNAcylated protein. The amount of O-GlcNAcylated protein:RL2 antibody interaction can be measured by enzyme linked immunosorbant assay (ELISA) procedures.
# Compounds to be tested were dissolved in DMSO, either 2 or 10 mM stock solution, and then diluted with DMSO and water in a two-step process using a Tecan workstation. […] To prepare a cell lysate, the media from compound treated cells was removed, the cells were washed once with phosphate buffered saline (PBS) and then lysed for 5 minutes at room temperature in 50 μL of Phosphosafe reagent (Novagen Inc, Madison, Wis.) with protease inhibitors and PMSF. The cell lysate was collected and transferred to a new plate, which was then either coated to assay plates directly or frozen −80° C. until used in the ELISA procedure. If desired, the total protein concentration of samples was determined using 20 μL of the sample using the BCA method.
# The ELISA portion of the assay was performed in a black Maxisorp 96-well plate that was coated overnight at 4° C. with 100 μL/well of the cell lysate (1:10 dilution of the lysate with PBS containing protease inhibitors, phosphatase inhibitors, and PMSF). The following day the wells were washed 3 times with 300 μL/well of Wash buffer (Tris-buffered saline with 0.1% Tween 20).
# The amount of O-GlcNAcylated protein, as detected by the ELISA assay, was plotted for each concentration of test compound using standard curve fitting algorithms for sigmoidal dose response curves. The values for a four parameter logistic curve fit of the data were determined, with the inflection point of the curve being the potency value for the test compound.
# Sequence of human O-GlcNAcase (O60502 whole entry): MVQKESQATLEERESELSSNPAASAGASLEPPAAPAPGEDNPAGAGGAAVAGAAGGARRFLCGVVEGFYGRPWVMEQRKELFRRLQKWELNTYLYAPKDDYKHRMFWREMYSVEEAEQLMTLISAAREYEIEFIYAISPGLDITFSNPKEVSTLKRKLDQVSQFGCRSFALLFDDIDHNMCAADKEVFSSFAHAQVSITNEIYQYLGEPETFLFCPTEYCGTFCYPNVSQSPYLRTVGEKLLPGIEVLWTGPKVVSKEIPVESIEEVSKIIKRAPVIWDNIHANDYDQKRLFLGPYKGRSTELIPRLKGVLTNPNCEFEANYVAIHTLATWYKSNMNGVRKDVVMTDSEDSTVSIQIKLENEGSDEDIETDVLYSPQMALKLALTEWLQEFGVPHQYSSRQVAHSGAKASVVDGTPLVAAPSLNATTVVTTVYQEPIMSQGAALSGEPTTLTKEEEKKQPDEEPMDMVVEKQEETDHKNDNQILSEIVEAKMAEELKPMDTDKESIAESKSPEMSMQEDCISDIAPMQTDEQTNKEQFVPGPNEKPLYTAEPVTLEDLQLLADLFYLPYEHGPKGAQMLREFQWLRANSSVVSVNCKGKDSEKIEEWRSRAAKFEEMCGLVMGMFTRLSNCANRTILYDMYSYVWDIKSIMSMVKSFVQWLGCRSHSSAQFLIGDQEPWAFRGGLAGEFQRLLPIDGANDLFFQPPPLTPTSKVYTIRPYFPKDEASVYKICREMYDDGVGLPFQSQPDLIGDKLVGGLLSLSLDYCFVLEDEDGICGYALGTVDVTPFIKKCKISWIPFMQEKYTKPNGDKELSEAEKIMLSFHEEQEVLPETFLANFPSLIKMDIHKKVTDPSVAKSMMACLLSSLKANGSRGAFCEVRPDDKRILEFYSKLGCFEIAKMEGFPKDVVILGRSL
# Sequence of O-GlcNAcase (Q8VIJ5 whole entry): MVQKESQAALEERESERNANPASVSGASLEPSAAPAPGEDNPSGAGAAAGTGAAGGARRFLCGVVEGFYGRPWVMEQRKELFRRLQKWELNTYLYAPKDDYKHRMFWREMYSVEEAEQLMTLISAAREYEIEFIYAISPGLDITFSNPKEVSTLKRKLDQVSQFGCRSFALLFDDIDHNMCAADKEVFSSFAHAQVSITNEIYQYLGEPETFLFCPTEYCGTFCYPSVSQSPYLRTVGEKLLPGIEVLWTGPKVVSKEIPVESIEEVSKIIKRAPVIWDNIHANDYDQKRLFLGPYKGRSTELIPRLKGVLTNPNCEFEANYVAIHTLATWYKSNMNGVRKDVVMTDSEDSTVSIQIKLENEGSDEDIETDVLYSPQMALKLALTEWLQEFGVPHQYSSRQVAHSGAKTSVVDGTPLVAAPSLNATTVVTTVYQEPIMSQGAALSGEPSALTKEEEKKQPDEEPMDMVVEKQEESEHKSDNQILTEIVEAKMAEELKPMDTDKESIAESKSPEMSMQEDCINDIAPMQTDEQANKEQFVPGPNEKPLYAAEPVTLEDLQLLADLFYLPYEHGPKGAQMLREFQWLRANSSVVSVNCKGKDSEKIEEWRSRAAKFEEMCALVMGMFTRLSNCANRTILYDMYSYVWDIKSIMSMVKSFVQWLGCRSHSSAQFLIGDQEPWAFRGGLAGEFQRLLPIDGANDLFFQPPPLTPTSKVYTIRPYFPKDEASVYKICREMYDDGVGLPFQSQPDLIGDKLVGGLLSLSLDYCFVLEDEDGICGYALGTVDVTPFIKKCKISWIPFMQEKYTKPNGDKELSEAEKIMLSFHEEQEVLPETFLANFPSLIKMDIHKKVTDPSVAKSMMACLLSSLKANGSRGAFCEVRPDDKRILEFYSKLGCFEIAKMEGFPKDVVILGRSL
Ki (human O-GlcNAcase) [nM],"Papp at 3 h, 1 μM [1] [nm/s]",EC50 (O-GlcNAcase) [nM],SMILES
8.6,22,,"CNC1=N[C@@H]2[C@H](F)[C@H](O)[C@@H](CO)C[C@@H]2O1 [Example 12, (3aS,4S,5R,6R,7aS)-4-fluoro-6-(hydroxymethyl)-2-(methylamino)-3a,4,5,6,7,7a-hexahydrobenzo[d]oxazol-5-ol]"
0.7,28,5.1,"O[C@H]1[C@H](O)[C@@H](C(F)F)C[C@@H]2OC(N3CCC3)=N[C@H]12 [Example 6, (3aR,4R,5R,6S,7aS)-2-(azetidin-1-yl)-6-(difluoromethyl)-3a,4,5,6,7,7a-hexahydrobenzo[d]oxazole-4,5-diol]"
7,,,"OC[C@H]1C[C@@H]2OC(N3CCC3)=N[C@@H]2[C@H](F)[C@@H]1O [Example 10, (3aS,4S,5R,6R,7aS)-2-(azetidin-1-yl)-4-fluoro-6-(hydroxymethyl)-3a,4,5,6,7,7a-hexahydrobenzo[d]oxazol-5-ol]"
1.1,51,5.2,"O[C@@H]1[C@@H](CF)C[C@@H]2OC(N3CCC3)=N[C@@H]2[C@H]1O [Example 4, (3aR,4R,5R,6S,7aS)-2-(azetidin-1-yl)-6-(fluoromethyl)-3a,4,5,6,7,7a-hexahydrobenzo[d]oxazole-4,5-diol]"
20.5,65,,"O[C@H]1[C@@H](F)[C@H]2N=C(N3CCC3)O[C@H]2C[C@@H]1C(F)F [Example 15, (3aS,4S,5R,6S,7aS)-2-(azetidin-1-yl)-6-(difluoromethyl)-4-fluoro-3a,4,5,6,7,7a-hexahydrobenzo[d]oxazol-5-ol]"
1.4,27,4.7,"CNC1=N[C@@H]2[C@@H](O)[C@H](O)[C@@H](C(F)F)C[C@@H]2O1 [Example 8, (3aR,4R,5R,6S,7aS)-6-(difluoromethyl)-2-(methylamino)-3a,4,5,6,7,7a-hexahydrobenzo[d]oxazole-4,5-diol]"
,65,,"CNC1=N[C@@H]2[C@@H](O)[C@H](O)[C@@H](CF)C[C@@H]2O1 [Example 2, (3aR,4R,5R,6S,7aS)-6-(fluoromethyl)-2-(methylamino)-3a,4,5,6,7,7a-hexahydrobenzo[d]oxazole-4,5-diol]"
